One assay concerns the target T1, human CRF2α receptor (Homo sapiens, UniProt Q13324).
T1 construct: expressed in transfected cells; host or cells: TeloHEAC
T1 sequence (Q13324 1-411): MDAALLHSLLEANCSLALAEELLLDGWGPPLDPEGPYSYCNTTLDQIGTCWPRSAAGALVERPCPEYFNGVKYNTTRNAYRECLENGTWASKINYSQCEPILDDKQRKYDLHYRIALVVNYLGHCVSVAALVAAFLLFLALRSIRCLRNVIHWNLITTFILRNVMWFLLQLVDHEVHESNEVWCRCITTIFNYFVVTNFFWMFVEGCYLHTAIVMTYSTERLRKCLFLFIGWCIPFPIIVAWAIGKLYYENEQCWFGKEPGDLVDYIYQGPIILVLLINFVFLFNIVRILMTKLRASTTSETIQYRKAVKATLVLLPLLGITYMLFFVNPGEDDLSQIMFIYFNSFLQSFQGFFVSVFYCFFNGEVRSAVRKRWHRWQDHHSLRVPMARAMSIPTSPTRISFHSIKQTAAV
Nature of the assay: cAMP agonism at human CRF2 α receptor in TeloHEAC cells (Example 7). The note with it: cAMP HTRF, TeloHEAC cells stably expressing human CRF2 α. The class given is cell-based. The method in brief: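 Percent activation was referenced to 1000 nM UCN2 (100%), and EC50 values taken as concentrations giving half of maximal response. The read-out was a homogeneous time-resolved fluorescence cAMP kit, fluorescence ratio 665/620 nm. Thawed cells (2000/well) saw compound for 30 min at RT in buffer with 2 mM IBMX and 0%/0.1% HSA.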
A general note: In TR-FRET formats the signal depends on donor and acceptor labels being close together.

In the next assay the target is T2, CRF1R receptor (Homo sapiens, UniProt P34998).
T2 construct: host or cells: CHO-K1 clone 2
T2 sequence (P34998 24-415): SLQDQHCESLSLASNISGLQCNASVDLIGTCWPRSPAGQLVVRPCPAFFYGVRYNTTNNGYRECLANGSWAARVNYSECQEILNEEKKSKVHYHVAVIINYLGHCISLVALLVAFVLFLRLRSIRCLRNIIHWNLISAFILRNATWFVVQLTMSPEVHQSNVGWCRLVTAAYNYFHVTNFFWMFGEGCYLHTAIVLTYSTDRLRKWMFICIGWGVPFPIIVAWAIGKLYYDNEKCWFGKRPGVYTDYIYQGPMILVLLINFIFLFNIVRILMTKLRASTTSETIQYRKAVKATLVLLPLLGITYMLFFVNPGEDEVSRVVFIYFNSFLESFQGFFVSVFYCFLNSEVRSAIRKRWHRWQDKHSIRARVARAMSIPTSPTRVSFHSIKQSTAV
In words: cAMP activity at anti-target CRF1R, CHO-K1 cell line clone 2 (Example 19.10). The assay is classed as cell-based. Conditions: CRF1R CHO-K1 clone 2; for EC50: 0% HSA, read-out: EC50 [nM] 0% HSA; for Emax: 100% = Sauvagine at 100 nM. As to the method: The CRF1R-overexpression CHO-K1 cell line clone 2 was purchased from PerkinElmer.
Cells were grown in a 10 cm dish at 37° C./5% CO2 in medium (F12 (Hams)/10% FBS/400 μg/ml G418) to near confluence. At that stage, cells were harvested, resuspended to 10 million/mL in culture medium without G418 and with 10% DMSO. 1 mL vial aliquots were slowly frozen to -80° C. in isopropanol and then transferred in liquid nitrogen for storage. These vials were used to run the experiment following the procedure reported 10 in the previous paragraph, except for the compound used in the control well to define the 100% activation (Sauvagine at 100 nM)

The mark [1] stands for this setting: 0% HSA, read-out: EC50 [nM], 0% HSA.

This passage reports EC50 and Emax results from patent US12679878B2, “CRF2 receptor agonists and their use in therapy” (SANOFI, priority 2020, dated 2026).

Structures are written as SMILES. Read-outs that look alike come from different tables or passages of the source. Starred links: 1 amine or outer side, 2 acyl side, 3 side chain; linkers in the order of their positions; H or OH if unused. Non-standard residues stand in square brackets, D forms with d. Residues, ends and D or L forms follow the SMILES beside them. Groups on a side chain read outwards from the residue. *: point of attachment. C18 diacid = O=C(O)CCCCCCCCCCCCCCCCC(=O)*; γGlu = O=C(O)[C@H](CCC(=O)[*:2])N[*:1]; Palmitoyl = CCCCCCCCCCCCCCCC(=O)*; AEEA = NCCOCCOCC(=O)O; Aib = CC(C)(N)C(=O)O

A word on the EC50: it is the concentration needed to bring the measured effect to its halfway point. By Emax is commonly meant the size of the effect at its maximum, as opposed to the concentration needed. As for `CCCCCCCCCCCCCCCC(=O)N[C@@H](CCC(=O)NCCCC[C@H](NC(=O)[C@H](CC(C)C)NC(=O)[C@H](CCCCN)NC(=O)[C@@H](NC(=O)[C@@H]1CCCN1C(=O)[C@H](NC(=O)[C@H](CC(=O)O)NC(=O)[C@H](CC(C)C)NC(=O)[C@H](CO)NC(=O)[C@H](CC(C)C)NC(=O)[C@@H](NC(=O)[C@@H](N)[C@@H](C)CC)C(C)C)C(C)C)[C@@H](C)O)C(=O)N[C@@H](CCCCN)C(=O)N[C@@H](CCCCN)C(=O)N[C@@H](CC(C)C)C(=O)N[C@@H](CC(C)C)C(=O)N[C@@H](CCCCN)C(=O)N[C@@H](CCC(N)=O)C(=O)N[C@@H](CCC(=O)O)C(=O)N[C@@H](CCCNC(=N)N)C(=O)N[C@@H](CCCCN)C(=O)N[C@@H](CCCNC(=N)N)C(=O)N[C@@H](CCCCN)C(=O)N[C@@H](CCC(=O)O)C(=O)N[C@@H](CCCNC(=N)N)C(=O)N[C@@H](CCC(=O)O)C(=O)N[C@@H](CCC(N)=O)C(=O)N[C@@H](C)C(=O)N[C@@H](CCC(=O)O)C(=O)N[C@@H](CCCCN)C(=O)N[C@@H](CC(N)=O)C(=O)N[C@@H](C)C(=O)N[C@@H](CCCNC(=N)N)C(=O)N[C@H](C(=O)N[C@@H](CC(C)C)C(=O)N[C@@H](CCC(=O)O)C(=O)N[C@@H](CCCNC(=N)N)C(=O)N[C@H](C(N)=O)C(C)C)[C@@H](C)CC)C(=O)O` [compound 27] (H-IVLSLD[dV]PTKLK([γGlu-Palmitoyl])KKLLKQERKRKEREQAEKNARILERV-NH2; N-terminus assumed), the EC50 at human CRF2α receptor (setting [1]) was 0.01 nM. In addition, on CRF1R receptor, the concentration giving a half-maximal response (EC50) is greater than 100 nM and the maximal effect (Emax) is 34.2%.
In the same order, the values of `CCCCCCCCCCCCCCCC(=O)N[C@@H](CCC(=O)NCCCC[C@H](NC(=O)[C@H](CC(C)C)NC(=O)[C@H](CCCCN)NC(=O)[C@@H](NC(=O)[C@@H]1CCCN1C(=O)[C@H](NC(=O)[C@H](CC(=O)O)NC(=O)[C@H](CC(C)C)NC(=O)[C@H](CO)NC(=O)[C@H](CC(C)C)NC(=O)[C@@H](NC(=O)[C@@H](N)[C@@H](C)CC)C(C)C)C(C)C)[C@@H](C)O)C(=O)N[C@@H](CCCCN)C(=O)N[C@@H](CCCCN)C(=O)N[C@@H](CC(C)C)C(=O)N[C@@H](CC(C)C)C(=O)N[C@@H](CCCCN)C(=O)N[C@@H](CCC(N)=O)C(=O)N[C@@H](CCC(=O)O)C(=O)N[C@@H](CCCNC(=N)N)C(=O)N[C@@H](CCCCN)C(=O)N[C@@H](CCCNC(=N)N)C(=O)N[C@@H](CCCCN)C(=O)N[C@@H](CCC(=O)O)C(=O)N[C@@H](CCCNC(=N)N)C(=O)N[C@@H](CCC(=O)O)C(=O)N[C@@H](CCCCN)C(=O)N[C@@H](C)C(=O)N[C@@H](CCC(=O)O)C(=O)N[C@@H](CCCCN)C(=O)N[C@@H](C)C(=O)N[C@@H](C)C(=O)N[C@@H](CCCNC(=N)N)C(=O)N[C@H](C(=O)N[C@@H](CC(C)C)C(=O)N[C@@H](CCC(=O)O)C(=O)N[C@@H](CCCNC(=N)N)C(=O)N[C@H](C(N)=O)C(C)C)[C@@H](C)CC)C(=O)O` [compound 28] (H-IVLSLD[dV]PTKLK([γGlu-Palmitoyl])KKLLKQERKRKEREKAEKAARILERV-NH2; N-terminus assumed) are 0.14 nM, greater than 100 nM and 8.4%.
In the same order, the values of `CCCCCCCCCCCCCCCC(=O)N[C@@H](CCC(=O)NCCCC[C@H](NC(=O)[C@H](CC(C)C)NC(=O)[C@H](CCCCN)NC(=O)[C@@H](NC(=O)[C@@H]1CCCN1C(=O)[C@H](NC(=O)[C@H](CC(=O)O)NC(=O)[C@H](CC(C)C)NC(=O)[C@H](CO)NC(=O)[C@H](CC(C)C)NC(=O)[C@@H](NC(=O)[C@@H](N)[C@@H](C)CC)C(C)C)C(C)C)[C@@H](C)O)C(=O)N[C@@H](CCCCN)C(=O)N[C@@H](CCCCN)C(=O)N[C@@H](CC(C)C)C(=O)N[C@@H](CC(C)C)C(=O)N[C@@H](CCCCN)C(=O)N[C@@H](CCC(N)=O)C(=O)N[C@@H](CCC(=O)O)C(=O)N[C@@H](CCCNC(=N)N)C(=O)N[C@@H](CCCCN)C(=O)N[C@@H](CCCNC(=N)N)C(=O)N[C@@H](CCCCN)C(=O)N[C@@H](CCC(=O)O)C(=O)N[C@@H](CCCNC(=N)N)C(=O)N[C@@H](CCC(=O)O)C(=O)NC(C)(C)C(=O)N[C@@H](C)C(=O)N[C@@H](CCC(=O)O)C(=O)N[C@@H](CCCCN)C(=O)N[C@@H](C)C(=O)N[C@@H](C)C(=O)N[C@@H](CCCNC(=N)N)C(=O)N[C@H](C(=O)N[C@@H](CC(C)C)C(=O)N[C@@H](CCC(=O)O)C(=O)N[C@@H](CCCNC(=N)N)C(=O)N[C@H](C(N)=O)C(C)C)[C@@H](C)CC)C(=O)O` [compound 29] (H-IVLSLD[dV]PTKLK([γGlu-Palmitoyl])KKLLKQERKRKERE[Aib]AEKAARILERV-NH2; N-terminus assumed) are 0.12 nM, greater than 100 nM and 18.4%.
In the same order, the values of `CCCCCCCCCCCCCCCC(=O)N[C@@H](CCC(=O)NCCCC[C@H](NC(=O)[C@H](CC(C)C)NC(=O)[C@H](CCCCN)NC(=O)[C@@H](NC(=O)[C@@H]1CCCN1C(=O)[C@H](NC(=O)[C@H](CC(=O)O)NC(=O)[C@H](CC(C)C)NC(=O)[C@H](CO)NC(=O)[C@H](CC(C)C)NC(=O)[C@@H](NC(=O)[C@@H](N)[C@@H](C)CC)C(C)C)C(C)C)[C@@H](C)O)C(=O)N[C@@H](CCCCN)C(=O)N[C@@H](CCCCN)C(=O)N[C@@H](CC(C)C)C(=O)N[C@@H](CC(C)C)C(=O)N[C@@H](CCCCN)C(=O)N[C@@H](CCC(N)=O)C(=O)N[C@@H](CCC(=O)O)C(=O)N[C@@H](CCCNC(=N)N)C(=O)N[C@@H](CCCCN)C(=O)N[C@@H](CCCNC(=N)N)C(=O)N[C@@H](CCCCN)C(=O)N[C@@H](CCC(=O)O)C(=O)N[C@@H](CCCNC(=N)N)C(=O)N[C@@H](CCC(=O)O)C(=O)N[C@@H](CCC(N)=O)C(=O)N[C@@H](C)C(=O)N[C@@H](CCC(=O)O)C(=O)N[C@@H](CCCCN)C(=O)N[C@@H](C)C(=O)N[C@@H](C)C(=O)N[C@@H](CCCNC(=N)N)C(=O)N[C@H](C(=O)N[C@@H](CC(C)C)C(=O)N[C@@H](CCC(=O)O)C(=O)N[C@@H](CCCNC(=N)N)C(=O)N[C@H](C(N)=O)C(C)C)[C@@H](C)CC)C(=O)O` [compound 30] (H-IVLSLD[dV]PTKLK([γGlu-Palmitoyl])KKLLKQERKRKEREQAEKAARILERV-NH2; N-terminus assumed) are 0.16 nM, greater than 100 nM and 14.5%.
For `CC[C@H](C)[C@H](N)C(=O)N[C@H](C(=O)N[C@@H](CC(C)C)C(=O)N[C@@H](CO)C(=O)N[C@@H](CC(C)C)C(=O)N[C@@H](CC(=O)O)C(=O)N[C@H](C(=O)N1CCC[C@H]1C(=O)N[C@H](C(=O)N[C@@H](CCCCN)C(=O)N[C@@H](CC(C)C)C(=O)N[C@@H](CCCCNC(=O)COCCOCCNC(=O)COCCOCCNC(=O)CC[C@H](NC(=O)CCCCCCCCCCCCCCCCC(=O)O)C(=O)O)C(=O)N[C@@H](CCC(N)=O)C(=O)N[C@H](C(=O)N[C@@H](CC(C)C)C(=O)N[C@@H](CC(C)C)C(=O)N[C@@H](CCCCN)C(=O)N[C@@H](CCC(N)=O)C(=O)N[C@@H](CCC(=O)O)C(=O)N[C@@H](CCCNC(=N)N)C(=O)N[C@@H](CCC(N)=O)C(=O)N[C@@H](CCCCN)C(=O)N[C@@H](CCCCN)C(=O)N[C@@H](CCC(N)=O)C(=O)N[C@@H](CCCNC(=N)N)C(=O)N[C@@H](CCC(=O)O)C(=O)N[C@@H](CCCCN)C(=O)N[C@@H](C)C(=O)N[C@@H](CCCCN)C(=O)N[C@H](C(=O)N[C@@H](CC(N)=O)C(=O)NC(C)(C)C(=O)N[C@@H](CCC(N)=O)C(=O)N[C@H](C(=O)N[C@@H](CC(C)C)C(=O)N[C@@H](C)C(=O)N[C@@H](CCC(N)=O)C(=O)N[C@H](C(N)=O)C(C)C)[C@@H](C)CC)[C@@H](C)O)[C@@H](C)CC)[C@@H](C)CC)C(C)C)C(C)C` [compound 88] (H-IVLSLDVPIKLK([AEEA-AEEA-γGlu-C18 diacid])QILLKQERQKKQREKAKTN[Aib]QILAQV-NH2; N-terminus assumed), the EC50 on human CRF2α receptor (setting [1]) is 0.68 nM; at human CRF2α receptor (0.1% HSA, read-out: EC50 [nM], 0.1% HSA), 25.7 nM; at CRF1R receptor, greater than 100 nM. At CRF1R receptor, the Emax was 2.3%.
